The NIST ThermoML archive (doi:10.1016/j.jct.2014.04.016)
Where “and” joins values, the source holds several entries; their conditions need not be identical. Equal values may be shown once.

Experiment: xn = mol fraction of the nth substance listed
Details: 100 kPa; for electrical conductivity: Alternating current cell with electrodes; for mass density: Vibrating tube method; for viscosity: Concentric cylinders viscometry

CCCCCCCCOS(=O)(=O)[O-].CCn1cc[n+](C)c1 [1-ethyl-3-methylimidazolium octyl sulfate] + O
Details | electrical conductivity | mass density [kg/m3] | viscosity
251.8 K, Glass, x1 = 0.5001 | 0.013 S/m | – | –
251.9 K, Glass, x1 = 0.5001 | 0.014 S/m | – | –
254.1 K, Glass, x1 = 0.5001 | 0.016 S/m and 0.017 S/m | – | –
255.1 K, Glass, x1 = 0.5001 | 0.018 S/m | – | –
256.1 K, Glass, x1 = 0.5001 | 0.02 S/m | – | –
257.1 K, Glass, x1 = 0.4688 | 0.023 S/m | – | –
257.1 K, Glass, x1 = 0.5001 | 0.022 S/m | – | –
258.1 K, Glass, x1 = 0.5001 | 0.023 S/m | – | –
259.1 K, Glass, x1 = 0.4688 | 0.028 S/m | – | –
259.1 K, Liquid, x1 = 0.5001 | 0.025 S/m | – | –
261.1 K, Glass, x1 = 0.4688 | 0.032 S/m and 0.031 S/m | – | –
261.1 K, Liquid, x1 = 0.0803 | 0.56 S/m | – | –
261.1 K, Liquid, x1 = 0.5001 | 0.029 S/m | – | –
263.1 K, Glass, x1 = 0.2119 | 0.228 S/m | – | –
263.1 K, Glass, x1 = 0.4688 | 0.036 S/m and 0.038 S/m | – | –
263.1 K, Liquid, x1 = 0.0586 | 0.703 S/m | – | –
263.1 K, Liquid, x1 = 0.0803 | 0.611 S/m | – | –
263.1 K, Liquid, x1 = 0.5001 | 0.034 S/m | – | –
264.1 K, Glass, x1 = 0.1197 | 0.479 S/m | – | –
265.1 K, Liquid, x1 = 0.0803 | 0.667 S/m and 0.622 S/m | – | –
266.1 K, Glass, x1 = 0.4688 | 0.045 S/m | – | –
266.1 K, Liquid, x1 = 0.0803 | 0.688 S/m | – | –
267.1 K, Glass, x1 = 0.4688 | 0.049 S/m | – | –
268.1 K, Glass, x1 = 0.1197 | 0.566 S/m | – | –
268.1 K, Glass, x1 = 0.2119 | 0.29 S/m | – | –
268.1 K, Glass, x1 = 0.4108 | 0.085 S/m | – | –
268.1 K, Glass, x1 = 0.4688 | 0.051 S/m | – | –
268.1 K, Liquid, x1 = 0.0401 | 0.898 S/m | – | –
268.1 K, Liquid, x1 = 0.0586 | 0.867 S/m | – | –
268.1 K, Liquid, x1 = 0.0803 | 0.755 S/m and 0.753 S/m | – | –
268.1 K, Liquid, x1 = 0.4688 | 0.052 S/m | – | –
268.1 K, Liquid, x1 = 0.5001 | 0.048 S/m | – | –
269.1 K, Glass, x1 = 0.1197 | 0.591 S/m and 0.59 S/m | – | –
269.1 K, Liquid, x1 = 0.0586 | 0.897 S/m | – | –
269.1 K, Liquid, x1 = 0.1197 | – | 1084.1 | –
269.1 K, Liquid, x1 = 0.4688 | 0.054 S/m | – | –
269.6 K, Glass, x1 = 0.4108 | – | – | 16300 mPa·s
269.6 K, Liquid, x1 = 0.4108 | – | 1107.2 | –
270.1 K, Glass, x1 = 0.1197 | 0.617 S/m and 0.616 S/m | – | 19170 mPa·s
270.1 K, Glass, x1 = 0.4108 | – | – | 5510 mPa·s
270.1 K, Liquid, x1 = 0.0401 | 0.968 S/m | – | –
270.1 K, Liquid, x1 = 0.1197 | – | 1083.7 | –
270.1 K, Liquid, x1 = 0.4108 | – | 1107 | –
270.1 K, Liquid, x1 = 0.4688 | 0.059 S/m and 0.058 S/m | – | –
270.6 K, Glass, x1 = 0.4108 | – | – | 2431 mPa·s
270.6 K, Liquid, x1 = 0.4108 | – | 1106.7 | –
271.1 K, Glass, x1 = 0.1197 | 0.641 S/m and 0.639 S/m | – | 16390 mPa·s
271.1 K, Glass, x1 = 0.4108 | 0.1 S/m | – | 1385 mPa·s
271.1 K, Liquid, x1 = 0.0803 | 0.862 S/m | – | –
271.1 K, Liquid, x1 = 0.1197 | – | 1083.1 | –
271.1 K, Liquid, x1 = 0.4108 | – | 1106.4 | –
271.6 K, Glass, x1 = 0.4108 | – | – | 889.3 mPa·s
271.6 K, Liquid, x1 = 0.4108 | – | 1106.1 | –
272.1 K, Glass, x1 = 0.1197 | 0.667 S/m | – | 11470 mPa·s
272.1 K, Glass, x1 = 0.4108 | 0.104 S/m | – | –
272.1 K, Liquid, x1 = 0.0401 | 1.03 S/m | – | –
272.1 K, Liquid, x1 = 0.1197 | 0.666 S/m | 1082.6 | –
272.1 K, Liquid, x1 = 0.4108 | – | 1105.7 | 609.1 mPa·s
273.1 K, Glass, x1 = 0.1197 | – | – | 9033 mPa·s
273.1 K, Glass, x1 = 0.1402 | 0.597 S/m | – | –
273.1 K, Glass, x1 = 0.2119 | 0.371 S/m and 0.368 S/m | – | –
273.1 K, Glass, x1 = 0.3076 | 0.203 S/m | – | –
273.1 K, Glass, x1 = 0.3555 | 0.147 S/m | – | –
273.1 K, Glass, x1 = 0.4108 | 0.111 S/m | – | –
273.1 K, Liquid, x1 = 0.0401 | 1.07 S/m | – | –
273.1 K, Liquid, x1 = 0.0586 | 1.04 S/m | – | –
273.1 K, Liquid, x1 = 0.0803 | 0.921 S/m | – | –
273.1 K, Liquid, x1 = 0.1197 | 0.695 S/m | 1082 | –
273.1 K, Liquid, x1 = 0.4108 | – | 1105 | 564.7 mPa·s
273.1 K, Liquid, x1 = 0.4688 | 0.073 S/m and 0.07 S/m | – | –
273.1 K, Liquid, x1 = 0.5001 | 0.066 S/m | – | –
274.1 K, Glass, x1 = 0.1197 | – | – | 6783 mPa·s
274.1 K, Liquid, x1 = 0.1197 | 0.723 S/m | 1081.5 | –
274.1 K, Liquid, x1 = 0.4108 | 0.117 S/m | 1104.3 | 524.2 mPa·s
275.1 K, Glass, x1 = 0.1197 | – | – | 4354 mPa·s
275.1 K, Liquid, x1 = 0.1197 | 0.75 S/m | 1080.9 | –
275.1 K, Liquid, x1 = 0.4108 | 0.123 S/m | 1103.6 | 487.1 mPa·s
276.1 K, Glass, x1 = 0.1197 | – | – | 2361 mPa·s
276.1 K, Glass, x1 = 0.3555 | 0.169 S/m | – | –
276.1 K, Liquid, x1 = 0.0803 | 1.02 S/m | – | –
276.1 K, Liquid, x1 = 0.1197 | – | 1080.3 | –
276.1 K, Liquid, x1 = 0.4688 | 0.086 S/m | – | –
277.1 K, Glass, x1 = 0.1197 | – | – | 1248 mPa·s
277.1 K, Glass, x1 = 0.3555 | 0.181 S/m | – | –
277.1 K, Liquid, x1 = 0.1197 | 0.807 S/m and 0.806 S/m | 1079.7 | –
277.6 K, Glass, x1 = 0.3555 | – | – | 5137 mPa·s
277.6 K, Liquid, x1 = 0.3555 | – | 1100 | –
277.9 K, Glass, x1 = 0.3555 | – | – | 2995 mPa·s and 2875 mPa·s
277.9 K, Liquid, x1 = 0.3555 | – | 1099.9 | –
278.1 K, Glass, x1 = 0.1402 | 0.731 S/m and 0.732 S/m | – | –
278.1 K, Glass, x1 = 0.1605 | 0.677 S/m | – | –
278.1 K, Glass, x1 = 0.2119 | 0.46 S/m | – | –
278.1 K, Glass, x1 = 0.3076 | 0.259 S/m and 0.258 S/m | – | –
